# From a flash point compilation (Sun et al. 2020)
row,Structure (SMILES),flash point [°C]
1,CCCCCCCC(=O)O [Octanoic acid],127.0
2,"CCC(C)(C)C(=O)O [2,2-Dimethylbutyric acid]",79.0
3,"CC=C(C)C [2-Butene, 2-methyl-]",-44.9
4,CCC(C)N (centres undefined) [sec-BUTYLAMINE],-28.8
5,CCCCCCCCCC(=O)O [Decanoic acid],148.0
6,C=CCCCCCCCCCCCCC [1-Pentadecene],112.0
7,C=CCCCCC [1-Heptene],-8.0
8,CCC(C)N (centres undefined) [sec-Butylamine],-18.9
9,Cc1ccccc1 [Toluene],6.0
10,"C=CC(C)CC (centres undefined) [1-Pentene, 3-methyl-]",-27.9
11,CC(C)NC(C)C [Diisopropylamine],-7.0
12,CCCCCCCCCCCCO [1-DODECANOL],125
13,NC1CCCC1 [Cyclopentanamine],11.5
14,"CCCC(CC)CC [Hexane, 3-ethyl-]",5
15,"CN(C)c1ccccc1 [N,N-Dimethylaniline]",75.0
16,"CCCCC(CC)CC [Heptane, 3-ethyl-]",23.0
17,Cc1ccccc1 [TOLUENE],4.0
18,CCCNCCC [Dipropylamine],7.5
19,"CCc1ccccc1O [Phenol, 2-ethyl-]",85.0
20,CCCCCCCS [1-Heptanethiol],50.5
21,"CCCCCC(C)CCC (centres undefined) [Nonane, 4-methyl-]",44.0

row,Structure (SMILES),flash point [°C]
1,"NCCN [1,2-Ethanediamine]",38
2,"CCCC(C)CO (centres undefined) [1-Pentanol, 2-methyl-]",50.0
3,CCCCCCCCCO [1-NONANOL],95
4,CCC(O)CC [3-Pentanol],30.0
5,"COCCOC [1,2-Dimethoxyethane]",-1.6
6,CCCCCCCCCCCCC [Tridecane],90.0
7,CCCCCCCC=O [Octanal],51.0
8,"CCCCCCC(C)CC (centres undefined) [Nonane, 3-methyl-]",46.0
9,CCCCCC#N [Hexanenitrile],43.0
10,C=CCCCCCCCC [1-Decene],47.0
11,CNC [Dimethylamine],-49.9
12,"CCCCC(C)CCC (centres undefined) [Octane, 4-methyl-]",23.0
13,C=CCCCC [1-HEXENE],-31
14,"CCCCCC(C)C [Heptane, 2-methyl-]",6.0
15,"Cc1cccc(C)c1 [1,3-Dimethylbenzene]",25.0
16,Nc1ccccc1 [Aniline],71.0
17,C=CCCCCCCCCCC [1-DODECENE],67
18,CCCCC(C)O (centres undefined) [2-HEXANOL],46.2
19,"Cc1ccncc1 [Pyridine, 4-methyl-]",39.0
20,"COCCO [Ethanol, 2-methoxy-]",39.0
21,"CCCCC(CC)C(=O)O (centres undefined) [Hexanoicacid, 2-ethyl-]",110.0

# Remark: another data set of the same source
row,Structure (SMILES),flash point [°C]
1,CCCCCCCC(=O)O [Octanoic acid],132.00
2,Cc1ccccc1 [Toluene],4.40
3,Nc1ccccc1 [Aniline],70.00

# Remark: another data set of the same source
row,Structure (SMILES),flash point [°C]
1,CCO[Si](CC)(CC)OCC [Diethyldiethoxysilane],43.00
2,CCCCCCCC[Si](C)(C)Cl [n-Octyldimethylchlorosilane],97.00
3,CC[SiH3] [Ethylsilane],-60.00
4,CC[Si](C)(C)Cl [Ethyldimethylchlorosilane],-4.00
5,C[Si](C)(C)S[Si](C)(C)C [Hexamethyldisilthiane],26.00
6,C[Si](C)(C)Cc1ccccc1 [Benzyltrimethylsilane],62.00
7,CCC[Si](C)(Cl)Cl [n-Propylmethyldichlorosilane],27.00
8,C[Si](C)(Cl)CCl [Chloromethyldimethylchlorosilane],22.00
9,CCN(CC)[Si](C)(C)C [(Diethylamino)trimethylsilane],10.00
